According to patent publication US6114302A, “Fragrance pro-accords” (The Procter & Gamble Company, priority 1999, dated 2000):

Experiment: Fragrance Release Half-life (hydrolysis kinetics of pro-accord monitored by HPLC)
Assay type: physicochemical
Conditions: 90/10 dioxane/phosphate buffered water, buffer pH approximately 2.5, HPLC at 30° C.
Description: For the purposes of the present invention the pro-accords generally have a "Fragrance Release Half-life" of less than or equal to 12 hours when measured in NaH2 PO4 buffer at pH 2.5 and greater than or equal to 0.1 hour when measured in NaH2 PO4 buffer at pH 5.3. The "Fragrance Release Half-life" is defined herein as follows.
The rate at which the accord is released is defined by the formula: […]
and can be further expressed by the formula: [formula] wherein k is the release rate constant and [Pro-accord] is the concentration of pro-accord. For the purposes of the present invention the "Fragrance Release Half-life", t1/2, is related to the release rate constant by the formula: [formula] and this relationship is used for the purposes of the present invention to determine the "fragrance Release Half-life" (FRHL).
Due to the hydrophobic nature of some pro-accords, it is necessary to conduct the determination of t1/2 and k in a mixture of 90/10 dioxane/phosphate buffered water. […] Next 10 mL of the phosphate buffer is admixed with 90 mL of dioxane and the pro-fragrance to be analyzed is added. The hydrolysis kinetics are then monitored by conventional HPLC at 30° C. […]
*t1/2 for the purposes of the present invention is measured in […]

t1/2 (Fragrance Release Half-life) [h] | Compound
4.8 | c1ccc(CCOC(OCCc2ccccc2)(OCCc2ccccc2)OCCc2ccccc2)cc1 [tetrakis(phenylethyl) orthocarbonate, Tetrakis(phenylethyl) Orthocarbonate]
5.9 | c1ccc(CCOC(OCCc2ccccc2)OCCc2ccccc2)cc1 [tris(phenylethyl) orthoformate, Tris(phenylethyl) Orthoformate]
